According to patent US9102686B2, “5,6,7,8,9,10-hexahydro-6,10-epimino[1,2,4]triazolo[4,3-a]azocines as P2X7 modulators” (Janssen Pharmaceutica NV, priority 2013, dated 2015):

Experiments:
[1] = target: T1, rat P2X7 (Rattus norvegicus (Rat), UniProt Q64663); experiment: Radioligand binding, rat P2X7-1321N1 cell membranes, tritiated A-804598; details: rat P2X7-1321N1 membranes, tracer tritiated A-804598, 1 hour 4° C.
Method: (§1) P2X7 Antagonism in Recombinant hP2X7 Cells: (a) Ca^2+ Flux (b) Radioligand Binding
(§2) (B) Radioligand binding: human or rat P2X7-1321N1 cells were collected and frozen @−80° C. On the day of the experiment, cell membrane preparations were made according to standard published methods. […] The compound can be prepared as described in the literature. […] The assay was terminated by filtration (GF/B filters pre-soaked with 0.3% PEI) and washed with washing buffer (Tris-HCl 50 mM). The IC50 generated in the binding assay was corrected for tracer concentration and affinity of the tracer to derive at the affinity (Ki) of the test compounds.

[2] = target: T2, human P2X7 (Homo sapiens (Human), UniProt Q99572); experiment: Radioligand binding, human P2X7-1321N1 cell membranes, tritiated A-804598; details: human P2X7-1321N1 membranes, tracer tritiated A-804598, 1 hour 4° C.
Method: as §1, §2

[3] = target: T2, human P2X7; experiment: Ca2+ flux (FLIPR) in 1321N1 cells expressing recombinant human P2X7 channel; format: cell-based; details: human P2X7, 250 μM BzATP
Method: as §1
(§3) (A) Ca^2+flux: 1321N1 cells expressing the recombinant human, rat or mouse P2X7 channel was cultured in HyQ DME/(HyClone/Dulbecco's Modified Eagle Medium) high glucose supplemented with 10% Fetal Bovine Serum (FBS) and appropriate selection marker. Cells were seeded at a density of 25000 cells/well (96-well clear bottom black walled plates) in 100 μl volume/well. On the day of the experiment, cell plates were washed with assay buffer, containing (in mM): 130 NaCl, 2 KCl, 1 CaCl2, 1 MgCl2, 10 HEPES, 5 glucose; pH 7.40 and 300 mOs. After the wash, cells were loaded with the Calcium-4 dye (Molecular Device) and incubated in the dark for 60 minutes. Test compounds were prepared at 250× the test concentration in neat DMSO. Intermediate 96-well compound plates were prepared by transferring 1.2 μL of the compound into 300 μL of assay buffer. A further 3× dilution occurred when transferring 50 μL/well of the compound plate to 100 μL/well in the cell plate. Cells were incubated with test compounds and dye for 30 minutes. […] The fluorescence change was measured 180 seconds after adding the agonist.

[4] = target: T1, rat P2X7; experiment: Ca2+ flux (FLIPR) in 1321N1 cells expressing recombinant rat P2X7 channel; format: cell-based; details: rat P2X7, 250 μM BzATP
Method: as §1, §3

T1 sequence (Q64663 whole entry): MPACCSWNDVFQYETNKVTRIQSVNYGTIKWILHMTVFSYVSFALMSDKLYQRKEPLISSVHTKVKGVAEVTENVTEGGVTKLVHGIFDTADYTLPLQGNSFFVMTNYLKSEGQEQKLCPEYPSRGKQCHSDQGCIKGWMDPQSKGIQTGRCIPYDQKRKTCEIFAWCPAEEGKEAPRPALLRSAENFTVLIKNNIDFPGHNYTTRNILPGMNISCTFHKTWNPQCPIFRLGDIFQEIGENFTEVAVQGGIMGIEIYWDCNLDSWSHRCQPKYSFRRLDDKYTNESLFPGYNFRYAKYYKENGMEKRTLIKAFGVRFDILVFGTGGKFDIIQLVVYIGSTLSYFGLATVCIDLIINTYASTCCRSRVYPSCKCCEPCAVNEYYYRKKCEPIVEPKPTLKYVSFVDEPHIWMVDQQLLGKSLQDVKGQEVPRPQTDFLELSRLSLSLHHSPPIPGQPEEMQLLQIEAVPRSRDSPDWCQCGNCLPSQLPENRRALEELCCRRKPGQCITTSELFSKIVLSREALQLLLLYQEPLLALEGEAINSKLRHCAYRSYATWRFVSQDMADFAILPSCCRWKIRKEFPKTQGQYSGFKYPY
T2 sequence (Q99572 whole entry): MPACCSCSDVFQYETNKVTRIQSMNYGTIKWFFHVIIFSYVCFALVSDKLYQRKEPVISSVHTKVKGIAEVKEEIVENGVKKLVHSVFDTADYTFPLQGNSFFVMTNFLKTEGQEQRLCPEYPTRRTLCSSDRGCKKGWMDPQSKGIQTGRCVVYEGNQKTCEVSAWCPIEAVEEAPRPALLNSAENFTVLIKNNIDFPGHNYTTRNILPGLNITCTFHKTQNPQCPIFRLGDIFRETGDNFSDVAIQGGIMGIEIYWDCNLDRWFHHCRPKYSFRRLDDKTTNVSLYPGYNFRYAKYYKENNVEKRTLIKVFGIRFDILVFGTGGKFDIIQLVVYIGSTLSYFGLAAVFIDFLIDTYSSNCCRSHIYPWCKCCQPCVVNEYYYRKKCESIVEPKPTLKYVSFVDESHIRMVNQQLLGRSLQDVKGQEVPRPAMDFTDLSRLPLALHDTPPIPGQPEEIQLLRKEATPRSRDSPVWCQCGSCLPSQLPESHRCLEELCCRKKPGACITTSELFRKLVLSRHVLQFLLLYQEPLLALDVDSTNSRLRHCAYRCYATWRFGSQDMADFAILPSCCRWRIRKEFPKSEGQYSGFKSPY

| Compound | Ki [1] [nM] | Ki [2] [nM] | IC50 [3] [nM] | IC50 [4] [nM] |
| --- | --- | --- | --- | --- |
| O=C(c1cccc(C(F)(F)F)c1Cl)N1[C@H]2CC[C@@H]1c1nnc(-c3ccc(F)cc3)n1C2 [Example 40, (6S,9R)-10-{[2-Chloro-3-(trifluoromethyl)phenyl]carbonyl}-3-(4-fluorophenyl)-6,7,8,9-tetrahydro-5H-6,9-epimino[1,2,4]triazolo[4,3-a]azepine] | 35.5 | 21.9 | 12.6 | 10000 |
| O=C(c1cccc(C(F)(F)F)c1Cl)N1[C@H]2CC[C@@H]1c1nnc(-c3ccccn3)n1C2 [Example 41, (6S,9R)-10-{[2-Chloro-3-(trifluoromethyl)phenyl]carbonyl}-3-pyridin-2-yl-6,7,8,9-tetrahydro-5H-6,9-epimino[1,2,4]triazolo[4,3-a]azepine] | 7.9 | 12.6 | 6.3 | 1580 |
| O=C(c1cccc(C(F)(F)F)c1Cl)N1[C@H]2CC[C@@H]1c1nnc(-c3cnccn3)n1C2 [Example 42, (6S,9R)-10-{[2-Chloro-3-(trifluoromethyl)phenyl]carbonyl}-3-pyrazin-2-yl-6,7,8,9-tetrahydro-5H-6,9-epimino[1,2,4]triazolo[4,3-a]azepine] | 7.9 | 12.6 | 20 | 251 |
| O=C(c1cccc(C(F)(F)F)c1Cl)N1[C@H]2CC[C@@H]1c1nnc(-c3ccc(F)cn3)n1C2 [Example 45, (6S,9R)-10-{[2-Chloro-3-(trifluoromethyl)phenyl]carbonyl}-3-(5-fluoropyridin-2-yl)-6,7,8,9-tetrahydro-5H-6,9-epimino[1,2,4]triazolo[4,3-a]azepine] | – | 12.6 | 13.1 | – |
| O=C(c1cccc(C(F)(F)F)c1Cl)N1[C@H]2CC[C@@H]1c1nnc(-c3ncccn3)n1C2 [Example 46, (6S,9R)-10-{[2-Chloro-3-(trifluoromethyl)phenyl]carbonyl}-3-pyrimidin-2-yl-6,7,8,9-tetrahydro-5H-6,9-epimino[1,2,4]triazolo[4,3-a]azepine] | 6.3 | 15.8 | 15.2 | 253 |
| O=C(c1ccc(F)c(Cl)c1Cl)N1[C@H]2CC[C@@H]1c1nnc(-c3cnccn3)n1C2 [Example 47, (6S,9R)-10-[(2,3-Dichloro-4-fluorophenyl)carbonyl]-3-pyrazin-2-yl-6,7,8,9-tetrahydro-5H-6,9-epimino[1,2,4]triazolo[4,3-a]azepine] | – | 10 | 20.3 | – |
| O=C(c1cccc(C(F)(F)F)c1Cl)N1[C@H]2CC[C@@H]1c1nnc(-c3cccnc3)n1C2 [Example 48, (6S,9R)-10-{[2-Chloro-3-(trifluoromethyl)phenyl]carbonyl}-3-pyridin-3-yl-6,7,8,9-tetrahydro-5H-6,9-epimino[1,2,4]triazolo[4,3-a]azepine] | – | 39.8 | 13.2 | – |
| O=C(c1cccc(C(F)(F)F)c1Cl)N1[C@H]2CC[C@@H]1c1nnc(-c3cscn3)n1C2 [Example 49, (6S,9R)-10-{[2-Chloro-3-(trifluoromethyl)phenyl]carbonyl}-3-(1,3-thiazol-4-yl)-6,7,8,9-tetrahydro-5H-6,9-epimino[1,2,4]triazolo[4,3-a]azepine] | 4 | 20 | 5 | 13.5 |
| Cc1cc(-c2nnc3n2C[C@@H]2CC[C@H]3N2C(=O)c2cccc(C(F)(F)F)c2Cl)[nH]n1 [Example 51, (6S,9R)-10-{[2-Chloro-3-(trifluoromethyl)phenyl]carbonyl}-3-(3-methyl-1H-pyrazol-5-yl)-6,7,8,9-tetrahydro-5H-6,9-epimino[1,2,4]triazolo[4,3-a]azepine] | 7.9 | 39.8 | 14.4 | 4100 |
| O=C(c1ccc(F)c(C(F)(F)F)c1Cl)N1[C@H]2CC[C@@H]1c1nnc(-c3cscn3)n1C2 [Example 52, (6S,9R)-10-{[2-Chloro-4-fluoro-3-(trifluoromethyl)phenyl]carbonyl}-3-(1,3-thiazol-4-yl)-6,7,8,9-tetrahydro-5H-6,9-epimino[1,2,4]triazolo[4,3-a]azepine] | 6.3 | 31.6 | 10.2 | 131 |
| Cc1c(C(=O)N2[C@H]3CC[C@@H]2c2nnc(-c4cscn4)n2C3)cccc1C(F)(F)F [Example 53, (6S,9R)-10-{[2-Methyl-3-(trifluoromethyl)phenyl]carbonyl}-3-(1,3-thiazol-4-yl)-6,7,8,9-tetrahydro-5H-6,9-epimino[1,2,4]triazolo[4,3-a]azepine] | 7.9 | 12.6 | 3.1 | 3860 |
| O=C(c1ccc(Cl)c(F)c1Cl)N1[C@H]2CC[C@@H]1c1nnc(-c3cscn3)n1C2 [Example 54, (6S,9R)-10-[(2,4-Dichloro-3-fluorophenyl)carbonyl]-3-(1,3-thiazol-4-yl)-6,7,8,9-tetrahydro-5H-6,9-epimino[1,2,4]triazolo[4,3-a]azepine] | 7.9 | 25.1 | 6.1 | 8910 |
| O=C(c1cccc(C(F)(F)F)c1Cl)N1[C@H]2CC[C@@H]1c1nnc(-c3ccc(Cl)s3)n1C2 [Example 55, (6S,9R)-3-(5-Chlorothiophen-2-yl)-10-{[2-chloro-3-(trifluoromethyl)phenyl]carbonyl}-6,7,8,9-tetrahydro-5H-6,9-epimino[1,2,4]triazolo[4,3-a]azepine] | – | 25.1 | 17.1 | – |
| Cc1nc(-c2nnc3n2C[C@@H]2CC[C@H]3N2C(=O)c2cccc(C(F)(F)F)c2Cl)cs1 [Example 56, (6S,9R)-10-{[2-Chloro-3-(trifluoromethyl)phenyl]carbonyl}-3-(2-methyl-1,3-thiazol-4-yl)-6,7,8,9-tetrahydro-5H-6,9-epimino[1,2,4]triazolo[4,3-a]azepine] | – | – | 30.8 | – |
| O=C(c1cccc(C(F)(F)F)c1Cl)N1[C@H]2CC[C@@H]1c1nnc(-c3cncs3)n1C2 [Example 57, (6S,9R)-10-{[2-Chloro-3-(trifluoromethyl)phenyl]carbonyl}-3-(1,3-thiazol-5-yl)-6,7,8,9-tetrahydro-5H-6,9-epimino[1,2,4]triazolo[4,3-a]azepine] | – | 35.5 | 97.7 | > 10000 |
| O=C(c1cccc(C(F)(F)F)c1Cl)N1[C@H]2CC[C@@H]1c1nnc(-c3ccsc3)n1C2 [Example 58, (6S,9R)-10-{[2-Chloro-3-(trifluoromethyl)phenyl]carbonyl}-3-thiophen-3-yl-6,7,8,9-tetrahydro-5H-6,9-epimino[1,2,4]triazolo[4,3-a]azepine] | – | 10 | 1.7 | 713 |
| Cc1ncsc1-c1nnc2n1C[C@@H]1CC[C@H]2N1C(=O)c1cccc(C(F)(F)F)c1Cl [Example 59, (6S,9R)-10-{[2-Chloro-3-(trifluoromethyl)phenyl]carbonyl}-3-(4-methyl-1,3-thiazol-5-yl)-6,7,8,9-tetrahydro-5H-6,9-epimino[1,2,4]triazolo[4,3-a]azepine] | – | 126 | 100 | > 10000 |
| O=C(c1ccnc(C(F)(F)F)c1Cl)N1[C@H]2CC[C@@H]1c1nnc(-c3ccc(Cl)s3)n1C2 [Example 60, (6S,9R)-3-(5-Chlorothiophen-2-yl)-10-{[3-chloro-2-(trifluoromethyl)pyridin-4-yl]carbonyl}-6,7,8,9-tetrahydro-5H-6,9-epimino[1,2,4]triazolo[4,3-a]azepine] | – | 21.9 | 14.9 | 2340 |
| O=C(c1cccc(C(F)(F)F)c1Cl)N1[C@H]2CC[C@@H]1c1nnc(-c3cccs3)n1C2 [Example 61, (6S,9R)-10-{[2-Chloro-3-(trifluoromethyl)phenyl]carbonyl}-3-thiophen-2-yl-6,7,8,9-tetrahydro-5H-6,9-epimino[1,2,4]triazolo[4,3-a]azepine] | – | 4 | 2.6 | 10000 |
| O=C(c1cccc(C(F)(F)F)c1Cl)N1[C@H]2CC[C@@H]1c1nnc(-c3ccc[nH]3)n1C2 [Example 62, (6S,9R)-10-{[2-Chloro-3-(trifluoromethyl)phenyl]carbonyl}-3-(1H-pyrrol-2-yl)-6,7,8,9-tetrahydro-5H-6,9-epimino[1,2,4]triazolo[4,3-a]azepine] | – | 6.3 | 19.6 | > 10000 |
